Data taken from ChEMBL document CHEMBL1201862, “PubChem BioAssay data set” (2004).
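Step 1: Grow cells in 96-well plates. Step 2: Expose to compound for 48 hours at 5 concentrations. Step 3: Interpolate endpoints linearly; if unreached, use highest concentration. GI50: concentration for 50% inhibition of growth.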 The source made the active and inactive calls. Cut-off read from the data, not from the text of the source: active = GI50 up to about 1.1 µM and inactive = higher.

What was measured:
Test in all cases: growth of human tumour cells (NCI), 48 h
SN12C = test system: SN12C
KM12 = test system: KM12
DU-145 = test system: DU-145
A498 = test system: A498
A549 = test system: A549
HCT-116 = test system: HCT-116
U-251 = test system: U-251
RPMI-8226 = test system: RPMI-8226
HCC 2998 = test system: HCC 2998
K562 = test system: K562
ACHN = test system: ACHN
MDA-N = test system: MDA-N
786-0 = test system: 786-0
UO-31 = test system: UO-31
OVCAR-4 = test system: OVCAR-4
MOLT-4 = test system: MOLT-4
MDA-MB-435 = test system: MDA-MB-435
CCRF-CEM = test system: CCRF-CEM
OVCAR-3 = test system: OVCAR-3
COLO 205 = test system: COLO 205
SK-MEL-28 = test system: SK-MEL-28
SR = test system: SR
HOP-92 = test system: HOP-92
NCI-H226 = test system: NCI-H226
NCI-H23 = test system: NCI-H23
NCI/ADR-RES = test system: NCI/ADR-RES
TK-10 = test system: TK-10
IGROV-1 = test system: IGROV-1
MDA-MB-231 = test system: MDA-MB-231
NCI-H460 = test system: NCI-H460
OVCAR-5 = test system: OVCAR-5
LOX IMVI = test system: LOX IMVI
UACC-62 = test system: UACC-62
SF-295 = test system: SF-295
NCI-H522 = test system: NCI-H522
HT-29 = test system: HT-29
SK-MEL-2 = test system: SK-MEL-2
RXF 393 = test system: RXF 393
HOP-62 = test system: HOP-62
PC-3 = test system: PC-3
T47D = test system: T47D
MCF7 = test system: MCF7
HCT-15 = test system: HCT-15
M14 = test system: M14
EKVX = test system: EKVX
Malme-3M = test system: Malme-3M
SF-268 = test system: SF-268
SNB-19 = test system: SNB-19
SK-OV-3 = test system: SK-OV-3
SNB-75 = test system: SNB-75
SK-MEL-5 = test system: SK-MEL-5
SF-539 = test system: SF-539
UACC-257 = test system: UACC-257
CAKI-1 = test system: CAKI-1
Hs-578T = test system: Hs-578T
BT-549 = test system: BT-549
HL-60 = test system: HL-60
SW-620 = test system: SW-620
OVCAR-8 = test system: OVCAR-8

Question: Which results are given for CSC1(C(=O)O)C2CCC3C2CCC31 (stereo not drawn)?
Answer: GI50 (SN12C): > 100 µM (inactive); GI50 (KM12): > 100 µM (inactive); GI50 (DU-145): > 100 µM (inactive); GI50 (A498): > 100 µM (inactive); GI50 (A549): > 100 µM (inactive); GI50 (HCT-116): > 100 µM (inactive); GI50 (U-251): > 100 µM (inactive); GI50 (RPMI-8226): > 100 µM (inactive); GI50 (HCC 2998): > 100 µM (inactive); GI50 (K562): 73.3 µM (inactive); GI50 (ACHN): > 100 µM (inactive); GI50 (MDA-N): > 100 µM (inactive); GI50 (786-0): > 100 µM (inactive); GI50 (UO-31): > 100 µM (inactive); GI50 (OVCAR-4): > 100 µM (inactive); GI50 (MOLT-4): > 100 µM (inactive); GI50 (MDA-MB-435): > 100 µM (inactive); GI50 (CCRF-CEM): 52.6 µM (inactive); GI50 (OVCAR-3): > 100 µM (inactive); GI50 (COLO 205): > 100 µM (inactive); GI50 (SK-MEL-28): > 100 µM (inactive); GI50 (SR): > 100 µM (inactive); GI50 (HOP-92): > 100 µM (inactive); GI50 (NCI-H226): > 100 µM (inactive); GI50 (NCI-H23): > 100 µM (inactive); GI50 (NCI/ADR-RES): > 100 µM (inactive); GI50 (TK-10): > 100 µM (inactive); GI50 (IGROV-1): > 100 µM (inactive); GI50 (MDA-MB-231): > 100 µM (inactive); GI50 (NCI-H460): 62.1 µM (inactive); GI50 (OVCAR-5): > 100 µM (inactive); GI50 (LOX IMVI): > 100 µM (inactive); GI50 (UACC-62): > 100 µM (inactive); GI50 (SF-295): > 100 µM (inactive); GI50 (NCI-H522): > 100 µM (inactive); GI50 (HT-29): > 100 µM (inactive); GI50 (SK-MEL-2): > 100 µM (inactive); GI50 (RXF 393): > 100 µM (inactive); GI50 (HOP-62): > 100 µM (inactive); GI50 (PC-3): > 100 µM (inactive); GI50 (T47D): > 100 µM (inactive); GI50 (MCF7): > 100 µM (inactive); GI50 (HCT-15): > 100 µM; GI50 (M14): > 100 µM (inactive); GI50 (EKVX): > 100 µM (inactive); GI50 (Malme-3M): > 100 µM (inactive); GI50 (SF-268): > 100 µM (inactive); GI50 (SNB-19): > 100 µM (inactive); GI50 (SK-OV-3): > 100 µM (inactive); GI50 (SNB-75): > 100 µM (inactive); GI50 (SK-MEL-5): > 100 µM (inactive); GI50 (SF-539): > 100 µM (inactive); GI50 (UACC-257): > 100 µM (inactive); GI50 (CAKI-1): > 100 µM (inactive); GI50 (Hs-578T): > 100 µM (inactive); GI50 (BT-549): > 100 µM (inactive); GI50 (HL-60): 99.5 µM (inactive); GI50 (SW-620): > 100 µM (inactive); GI50 (OVCAR-8): > 100 µM (inactive)

Question: For CC(=O)N1C(=O)/C(=C\C(=O)c2ccc(Cl)cc2)c2ccccc21, which GI50 (SN12C) is on record?
Answer: 15.3 µM (inactive)

Question: What about the GI50 (KM12) of the same compound?
Answer: 16.9 µM (inactive)

Question: What about the GI50 (DU-145) of the same compound?
Answer: 17.1 µM (inactive)

Question: And the GI50 (A498)?
Answer: 19.2 µM (inactive)

Question: What about the GI50 (A549) of the same compound?
Answer: 13.5 µM (inactive)

Question: And the GI50 (HCT-116)?
Answer: 9.29 µM (inactive)

Question: What about the GI50 (U-251) of the same compound?
Answer: 15.5 µM (inactive)

Question: And the GI50 (RPMI-8226)?
Answer: 24.4 µM (inactive)

Question: What about the GI50 (HCC 2998) of the same compound?
Answer: 15.9 µM (inactive)

Question: And the GI50 (K562)?
Answer: 12 µM (inactive)

Question: What about the GI50 (ACHN) of the same compound?
Answer: 9.31 µM (inactive)

Question: And the GI50 (MDA-N)?
Answer: 14.4 µM (inactive)

Question: What about the GI50 (786-0) of the same compound?
Answer: 4.27 µM (inactive)

Question: And the GI50 (UO-31)?
Answer: 15.4 µM (inactive)

Question: And the GI50 (OVCAR-4)?
Answer: 16.7 µM (inactive)

Question: And the GI50 (MOLT-4)?
Answer: 3.43 µM (inactive)

Question: What about the GI50 (MDA-MB-435) of the same compound?
Answer: 14.1 µM (inactive)

Question: And the GI50 (CCRF-CEM)?
Answer: 2.61 µM (inactive)

Question: What about the GI50 (OVCAR-3) of the same compound?
Answer: 10.1 µM (inactive)

Question: And the GI50 (COLO 205)?
Answer: 9.44 µM (inactive)

Question: What about the GI50 (SK-MEL-28) of the same compound?
Answer: 14 µM (inactive)

Question: What about the GI50 (SR) of the same compound?
Answer: 2.48 µM (inactive)

Question: What about the GI50 (HOP-92) of the same compound?
Answer: 18.3 µM (inactive)

Question: And the GI50 (NCI-H226)?
Answer: 19.9 µM (inactive)

Question: And the GI50 (NCI-H23)?
Answer: 15.6 µM (inactive)

Question: What about the GI50 (NCI/ADR-RES) of the same compound?
Answer: 20.6 µM (inactive)

Question: What about the GI50 (TK-10) of the same compound?
Answer: 15.6 µM (inactive)

Question: And the GI50 (IGROV-1)?
Answer: 16.7 µM (inactive)

Question: And the GI50 (MDA-MB-231)?
Answer: 13.9 µM (inactive)

Question: What about the GI50 (NCI-H460) of the same compound?
Answer: 15 µM (inactive)

Question: What about the GI50 (OVCAR-5) of the same compound?
Answer: 20 µM (inactive)

Question: What about the GI50 (LOX IMVI) of the same compound?
Answer: 2.3 µM (inactive)

Question: And the GI50 (UACC-62)?
Answer: 13.4 µM (inactive)

Question: What about the GI50 (SF-295) of the same compound?
Answer: 21.1 µM (inactive)

Question: What about the GI50 (NCI-H522) of the same compound?
Answer: 10.9 µM (inactive)

Question: And the GI50 (HT-29)?
Answer: 4.32 µM (inactive)

Question: What about the GI50 (SK-MEL-2) of the same compound?
Answer: 18.5 µM (inactive)

Question: What about the GI50 (RXF 393) of the same compound?
Answer: 15.3 µM (inactive)

Question: And the GI50 (HOP-62)?
Answer: 20.1 µM (inactive)

Question: What about the GI50 (PC-3) of the same compound?
Answer: 11.4 µM (inactive)

Question: And the GI50 (T47D)?
Answer: 16.5 µM (inactive)

Question: What about the GI50 (MCF7) of the same compound?
Answer: 21 µM (inactive)

Question: What about the GI50 (HCT-15) of the same compound?
Answer: 6.73 µM

Question: And the GI50 (M14)?
Answer: 16.5 µM (inactive)

Question: And the GI50 (EKVX)?
Answer: 17.6 µM (inactive)

Question: What about the GI50 (Malme-3M) of the same compound?
Answer: 16.3 µM (inactive)

Question: And the GI50 (SF-268)?
Answer: 18 µM (inactive)

Question: And the GI50 (SNB-19)?
Answer: 24.8 µM (inactive)

Question: What about the GI50 (SK-OV-3) of the same compound?
Answer: 22.8 µM (inactive)

Question: What about the GI50 (SNB-75) of the same compound?
Answer: 17.7 µM (inactive)

Question: What about the GI50 (SK-MEL-5) of the same compound?
Answer: 19.2 µM (inactive)

Question: And the GI50 (SF-539)?
Answer: 12.2 µM (inactive)

Question: And the GI50 (UACC-257)?
Answer: 14.9 µM (inactive)

Question: And the GI50 (CAKI-1)?
Answer: 13.3 µM (inactive)

Question: And the GI50 (Hs-578T)?
Answer: 19.5 µM (inactive)

Question: And the GI50 (BT-549)?
Answer: 4.19 µM (inactive)

Question: What about the GI50 (HL-60) of the same compound?
Answer: 2.28 µM (inactive)

Question: What about the GI50 (SW-620) of the same compound?
Answer: 4.24 µM (inactive)

Question: What about the GI50 (OVCAR-8) of the same compound?
Answer: 14.1 µM (inactive)
